This is an account of results in patent publication EP1030659B1 (Warner-Lambert Company LLC, priority 1997, dated 1999).

Series [1] in a line: Nasal airway pressure (decongestant activity) in normal and histamine-challenged rats. To be noted: for Mean Decrease in Nasal Airway Pressure: mean ± standard error; for Post Drug nasal airway pressure: 100% dose into the jugular vein; for %Change in nasal airway pressure: 100% dose. In kind it is in vivo, Sprague Dawley rats.
A short description of series [2]: Dosage required to raise mean arterial pressure (MAP) by 10% in dogs. To be noted: experimentally determined. In kind it is in vivo. On the procedure:
(§1) Nasal airway pressure was measured using a Validyne pressure transducer (Validyne Engineering, Northridge, CA) with a 2.25 cm H2O range membrane connected to a multipen recorder (Grass Instruments, Quincy, MA). Air was passed through an in-line direct measure flow meter (Gilmont Instruments, Barrington, IL) connected to the nasal opening cannula. Pressure was measured in the line with a constant flow rate (150 ml/min) of air. Drugs were directly injected into the jugular vein using a 30 gauge needle. All injections were of a constant 0.1 ml volume. In the congestion challenged groups congestion was achieved by an intranasal administration of histamine (50 mM, 0.02 ml/nostril). The histamine was expelled after 2 minutes with a short nasal cannula airflow and subsequent enantiomeric drug doses were directly injected into the jugular vein. The dosage chosen for each drug was the amount needed to increase the mean arterial pressure (MAP) of the animal by 10%; this dosage served as the "100%" dose for the initial nasal airway studies. […] The dosage required for rats was calculated by proportionately adjusting the experimentally determined dog dosage to account for the lesser weight of the rats.

Series [3] is described as follows: Rat dosage calculated from the dog dosage that raises MAP by 10%. In kind it is in vivo. To be noted: calculated from the dog dosage by proportionately decreasing for the lesser weight of the rat; absolute dosage. How it is done:
as §1

For the next series, the target named is α1-receptors. The series is described as follows: Alpha-1 binding, 3H-prazocin, canine lung membranes. Also on record: species or system mongrel dogs. The note with it: for Ki: Ki = IC50 / 1 + I/Kd, Kd from saturation analysis, unit inferred.
A further series has as its target α2-receptors. Briefly: Alpha-2 binding, p-125iodoclonidine, canine brain (frontal cortex) membranes. Also on record: species or system mongrel dogs. To be noted: for Ki: Ki = IC50 / 1 + I/Kd, Kd from saturation analysis, unit inferred; for IC50: inhibition of 50% of specific p-iodoclonidine binding, mean of several test samples; for Kd: canine cerebral cortex membranes. On the procedure:
• PULMONARY ALPHA-1 AND BETA-2 RECEPTORS. The lungs of mongrel dogs were separated from cartilaginous airways and major blood vessels, weighed, chopped and placed into 10 volumes of ice-cold buffered sucrose (50 mM Tris-HCl, pH 7.4, 1 mM EGTA, 0.32 M sucrose). The tissue was then homogenized in a type PT10/35, size 89/PTA 20S, Polytron tissue homogenizer (Kinematica, Westbury, NY). The homogenate was filtered through two layers of cheesecloth, and the filtrate was dounced three times using a 55 ml Con-Torque Potter homogenizer (Eberbach Corporation, Ann Arbor, Ml). […] The supematant was re-centrifuged at 30,000 x g for 30 minutes at 4°C and the resulting pellet was washed and resuspended in 10 volumes of Tris buffer (50 mM Tris HCL, pH 7.4, 1 mM EGTA) and incubated at 37°C for 30 minutes in a shaking water bath. The suspension was centrifuged at 4°C at 30,000 x g for 30 minutes and the resulting pellet washed in 10 volumes of Tris buffer for a total of three additional centrifugations and washes. […] Protein concentration was determined by the Lowry method and the final suspension was adjusted to 10 mg of protein/ml, aliquoted and stored at -90°C. Particulates were also prepared for β2 receptors using the identical procedure except the final protein concentration was adjusted to 0.1 mg/ml. • BRAIN ALPHA-2 RECEPTORS: Membranes of mongrel dogs were harvested from the canine frontal cortex and prepared as described above with respect to the lungs, except that the final membrane protein concentration was adjusted to 0.5 mg/ml.
Nonspecific binding was determined for each concentration point in separate incubations using 10 µM phentolamine. Each experimental point was determined in triplicate. […] All binding assay incubations were terminated by rapid dilution with 2 ml of ice-cold wash buffer (50 mM Tris-HCl, pH 7.4) and filtration through FP-100 Whatman GF/B fired filters (Biomedical Research & Development Lab, Gaithersburg, MD) using a Brandel receptor-binding harvester. The filters were washed twice more with 4 ml of wash buffer and then added to 6 ml Cytoscint (ICN, Costa Mesa CA) for liquid scintillation counting (Barnes et al., 23 MOL. PHARMACOL. 570-75 (1983)). […] Nonspecific binding was determined in separate incubations in the presence of 10 µM phentolamine. The final concentration of p-iodoclonidine was 44-45 pM in competition studies and between 50 pM and 10 nM in saturation experiments. Bound and free p-^125 iodoclonidine were separated and the bound quantitated as described below for the ICYP assays. […] Nonspecific binding was determined in separate incubations in the presence of 2 µM d,I-propranolol. Each experimental point was determined in triplicate. […] Incubations were terminated as described above for the α1 assays. Filters were placed into polyethylene tubes and the bound ligand was determined by gamma spectrometry(Sano et al., 52 LIFE SCIENCES 1063-70 (1993)).
All data were analyzed with the aid of microcomputer nonlinear curve fitting programs (PRISM 2.0, Graphpad Software, San Diego CA).
The receptors resident in each of the three membrane preparations were evaluated by standard saturation analysis following the addition of increasing concentrations of the appropriate radioligand.
The radioligand added for subsequent α2-displacement assays was adjusted to evaluate only the high affinity receptor. Contributions from p-iodoclonidine binding to imidazoline receptors in the α2- displacement assay was evaluated with epinephrine.

Series [4] has as its system Male Swiss-Webster mice. The series is described as follows: Locomotor stimulant effects (horizontal locomotor activity). To be noted: i.p.; for ED50: Mus musculus, ip, dose resulting in ½ the maximal stimulant effect, read-out: Stimulation Potency (ED50); for locomotor stimulant effects, time course (in words): 2-hour session; for Stimulation Efficacy: ratio of the maximal stimulant effect of the test compound to the maximal effect of (+)-amphetamine. In kind it is in vivo.

The subject of series [5] is Male Swiss-Webster mice. Briefly: H1 antihistamine (triprolidine) interaction studies, locomotor activity. To be noted: for interaction with triprolidine pretreatment (central nervous system stimulation, horizontal movement): pretreatment with 0.01, 0.1, or 1.0 mg/kg triprolidine 20 minutes before the sympathomimetic.
The next series has as its target T1, β2-receptors (Canis lupus familiaris, UniProt P54833).
T1 construct: The lungs of mongrel dogs were separated from cartilaginous airways and major blood vessels; from tissue; host or cells: mongrel dog lung membranes
The series is described as follows: Beta-2 binding, 125iodocyanopindolol (ICYP), canine lung membranes. Also on record: species or system mongrel dogs.

Setting [6] is: 5% of the dose that increased canine resting mean arterial pressure 10%, rats.
The mark [7] stands for this setting: 10% of the dose that increased canine resting mean arterial pressure 10%, rats.
The mark [8] stands for this setting: 25% of the dose that increased canine resting mean arterial pressure 10%, rats.
The mark [9] stands for this setting: 50% of the dose that increased canine resting mean arterial pressure 10%, rats.
Where [10] appears, read: histamine-challenged rats (50 mM, 0.02 ml/nostril).
[11] abbreviates: histamine-challenged rats, relative to post-histamine level.
The mark [12] stands for this setting: non-histamine-challenged rats, relative to control.

Like-named read-outs stand apart in the source and are kept apart here.

T1 sequence (P54833 whole entry): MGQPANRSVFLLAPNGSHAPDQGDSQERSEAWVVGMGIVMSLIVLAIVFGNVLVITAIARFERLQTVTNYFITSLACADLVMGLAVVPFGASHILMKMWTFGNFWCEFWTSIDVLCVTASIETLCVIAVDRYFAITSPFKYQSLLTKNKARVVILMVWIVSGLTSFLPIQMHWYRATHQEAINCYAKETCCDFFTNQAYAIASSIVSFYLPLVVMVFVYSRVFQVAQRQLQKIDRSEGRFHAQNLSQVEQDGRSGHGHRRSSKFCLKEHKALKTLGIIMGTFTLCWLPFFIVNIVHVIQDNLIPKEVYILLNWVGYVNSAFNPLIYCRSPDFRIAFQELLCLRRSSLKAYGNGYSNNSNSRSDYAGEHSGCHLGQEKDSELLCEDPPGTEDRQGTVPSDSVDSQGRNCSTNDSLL

One may read the Ki as a measure of affinity in units of concentration, obtained from inhibition or displacement. The term IC50 denotes the midpoint of a concentration-inhibition curve. Read a low IC50 as greater potency. The term ED50 denotes the midpoint of the dose-response relation. Regarding `CN[C@@H](C)[C@@H](O)c1ccccc1` [(+)-pseudoephedrine], the “Mean Decrease in Nasal Airway Pressure” value in series [1] (setting [6]) is […]; in series [1] (setting [7]) it was -6.8 ± 3.6; in series [1] (setting [8]) it was -13.5 ± 4.3; in series [1] (setting [9]) it was […]. The results for the “Post Drug nasal airway pressure” value in series [1] (setting [10]) and in series [1] (non-histamine-challenged rats) were 6.1 ±1.5 mm water and 7 ± 0.9 mm H2O, respectively. In addition, the “%Change in nasal airway pressure” value in series [1] (setting [11]) is -36.7 ±2.7%; in series [1] (setting [12]) it was […]. In addition, the “Dosage of Enantiomer, Dog: dosage required to raise MAP by 10%” value (“Dosage of Enantiomer, Dog … by 10%” below) in series [2] was determined as 200 µg/kg. In addition, the “Dosage of Enantiomer, Rat” value in series [3] is on record as 60 µg. In addition, the Ki on α1-receptors is 299000 nM; on α2-receptors it was […]. The compound further gave an IC50 at α2-receptors of […]. Moreover, the ED50 in the series with Male Swiss-Webster mice [4] was found to be 12.6 mg/kg. Moreover, the “locomotor stimulant effects, time course (in words)” value (from here on “locomotor stimulant effects”) in the series on Male Swiss-Webster mice [4] is reported as “Little or no stimulant effects”. Also, in the series on Male Swiss-Webster mice [4], the “Stimulation Efficacy” value was […]. Besides, in the series on Male Swiss-Webster mice [5], the “interaction with triprolidine pretreatment (central nervous system stimulation, horizontal movement)” value is recorded as “increased horizontal movement”.
One may read the Kd as the free concentration of one partner at which half of the binding sites on the other are occupied at equilibrium, for simple one-to-one binding. With `CC(C)(C)NCC(O)COc1cccc2[nH]c(C#N)c(I)c12` (stereo not drawn) [ICYP, iodocyanopindolol], the Kd at β2-receptors (Saturation Analysis, Run 1) came out at 0.0096 nM; on β2-receptors (Saturation Analysis, Run 2), 0.0093 nM; at β2-receptors (Saturation Analysis, Summary) it was 0.0095 nM; on β2-receptors (Scatchard Analysis, Run 1) it was 0.0099 nM; on β2-receptors (Scatchard Analysis, Run 2), 0.0078 nM; on β2-receptors (Scatchard Analysis, Summary), 0.0089 nM.
In the case of `Cc1ccc(/C(=C\CN2CCCC2)c2ccccn2)cc1` [triprolidine], the “effect on horizontal distance, triprolidine alone” value in the series with Male Swiss-Webster mice [5] (0.25 to 25 mg/kg, injected immediately prior to testing, 2-hour test period) was “failed to affect horizontal distance”. The “effect on locomotion, triprolidine alone” value with Male Swiss-Webster mice [5] (50 and 100 mg/kg, beginning within 10 minutes, lasting 30 to 40 minutes) is “Dose-dependent depression of locomotion”.
Regarding `CC(N)Cc1ccccc1` (single isomer, unassigned; (+)) [(+)-amphetamine], in the series with Male Swiss-Webster mice [4], the ED50 is 1.3 mg/kg; the “locomotor stimulant effects” value was “dose- and time-dependent increase in the distance traversed”.
As for `Clc1cc(I)cc(Cl)c1NC1=NCCN1` [p-iodoclonidine], the Kd on α2-receptors (Saturation Analysis, read-out: Kd 1 (high affinity)) worked out at 0.15 nM; at α2-receptors (Saturation Analysis, read-out: Kd 2 (high affinity)) it was 3.01 nM; at α2-receptors (Scatchard Analysis, read-out: Kd 1 (high affinity)), 0.15 nM; on α2-receptors (Scatchard Analysis, read-out: Kd 2 (low affinity)), 0.87 nM.
For the compound `CC(C)(C)NCC(O)COc1cccc2[nH]c(C#N)c([125I])c12` (stereo not drawn) [ICYP, iodocyanopindolol], the Bmax at β2-receptors (Saturation Analysis, Run 1) was 149 femtomoles per mg protein; on β2-receptors (Saturation Analysis, Run 2), 142 femtomoles per mg protein; at β2-receptors (Saturation Analysis, Summary), 146 femtomoles per mg protein; at β2-receptors (Scatchard Analysis, Run 1), 150 femtomoles per mg protein; on β2-receptors (Scatchard Analysis, Run 2) it was 139 femtomoles per mg protein; on β2-receptors (Scatchard Analysis, Summary), 145 femtomoles per mg protein.
Turning to `CNC[C@H](O)c1ccc(O)c(O)c1` [Epinephrine, epinephrine], in the series with α2-receptors (check for binding to imidazoline receptors in the α2-displacement assay), the “displacement of bound p-iodoclonidine” value was “easily displaced all bound p-iodoclonidine”.
With `CNC[C@H](O)c1cccc(O)c1` [(-)-phenylephrine], the “Mean Decrease in Nasal Airway Pressure” value is -1.6 ± 0.9 in series [1] (setting [6]), -4.8 ± 0.8 in series [1] (setting [7]), -12.1 ± 2.3 in series [1] (setting [8]) and -5.2 ± 1.6 in series [1] (setting [9]). The “Post Drug nasal airway pressure” value worked out at 10.5 ±2.1 mm water in series [1] (setting [10]) and 4 ± 0.2 mm H2O in series [1] (non-histamine-challenged rats). Also, the figures for the “%Change in nasal airway pressure” value in series [1] (setting [11]) and in series [1] (setting [12]) were -22.3 ±8.5% and -20.3 ± 4.3%, respectively. The “Dosage of Enantiomer, Dog … by 10%” value in series [2] stood at 10 µg/kg. Also, in series [3], the “Dosage of Enantiomer, Rat” value is 3 to 5 µg. This compound also registered an IC50 on α1-receptors of 7000 nM. For the same compound, the Ki at α1-receptors was 3000 nM. In addition, the “Stimulation Efficacy” value with Male Swiss-Webster mice [4] is given as 0.
`CN[C@H](C)[C@@H](O)c1ccccc1` [(+)-ephedrine]: the “Mean Decrease in Nasal Airway Pressure” value is -2.6 ± 1.0 in series [1] (setting [6]), 3.0 ± 1.0 in series [1] (setting [7]), -0.1 ± 1.4 in series [1] (setting [8]) and -1.0 ± 3.3 in series [1] (setting [9]). In addition, the “effect on normal airway decongestion (in words)” value in series [1] (75% dose, rats) is on record as “approximately the same efficacious effect on normal airway decongestion”. Moreover, the “Post Drug nasal airway pressure” value in series [1] (setting [10]) was determined as 8.2 ± 0.3 mm water; in series [1] (non-histamine-challenged rats) it was 7 ± 0.9 mm H2O. Moreover, the “%Change in nasal airway pressure” value in series [1] (setting [11]) is recorded as […]; in series [1] (setting [12]), […]. The “Dosage of Enantiomer, Dog … by 10%” value in series [2] turned out to be 200 µg/kg. In addition, the “Dosage of Enantiomer, Rat” value in series [3] is given as 60 µg. The Ki on α1-receptors is 40000 nM; at α2-receptors, […]. For the same compound, the half-inhibitory concentration (IC50) at α2-receptors came to […]. In addition, in the series on Male Swiss-Webster mice [4], the ED50 was 84.9 mg/kg. Further, the “locomotor stimulant effects” value with Male Swiss-Webster mice [4] is on record as “small increase in locomotor activity”. Moreover, the “Stimulation Efficacy” value in the series on Male Swiss-Webster mice [4] worked out at 0.25. In the series on Male Swiss-Webster mice [5], the “interaction with triprolidine pretreatment (central nervous system stimulation, horizontal movement)” value is “No such central nervous system stimulation”.
